In patent publication US5357044A, “Cecropins fusion proteins” (Xoma Corporation, priority 1993, dated 1994):
Ends that are not written are not given here.

Tests used:
Bacillus megaterium = conditions: background art; cited from earlier work
E. coli = conditions: background art; cited from earlier work
[1] = system: eight other species of bacteria; conditions: background art; cited from earlier work
Streptococcus faecalis = test: Bactericidal agar-well halo assay, Streptococcus faecalis; type: cell-based; conditions: ampicillin 750 ng
Description: (§1) Agar plates (8 cm in diameter) were prepared with 6 ml of TYE medium containing about 10^7 viable cells of test organism. Wells, 2 mm diameter, were punched in the plates. The test material was dissolved in 50 mM phosphate buffer (pH 6.6) and 3 ul was applied to each well. The diameters of the inhibition zones, or halos, around the wells were measured after overnight incubation at 25° C. To determine a standard of halo formation, CA 1-33 protein was used. 1 ug and 3 ug of CA 1-33 in well applications caused halos with diameters of 8 mm and 11 mm respectively, on media infused with E. coli strain JF568. 10 ug and 30 ug of cyanogen bromide-digested pCA3A araB-CA fusion protein caused halos with diameters 7 mm and 18 mm respectively.
(§2) Cyanogen bromide-digested fusion protein fractionated by HPLC was also applied to this assay. […] Other bacterial and yeast strains were also tested in this assay. Cyanogen bromide-digested and undigested fusion protein samples were applied in the amounts described above in the testing of E. coli strain JF568, and the resulting halo diameters were measured.

E. coli 5506 = test: Bactericidal agar-well halo assay, E. coli 5506; type: cell-based
Description: as §1, §2

Erwinia carotovora EC = test: Bactericidal agar-well halo assay, Erwinia carotovora EC; type: cell-based
Description: as §1, §2

Salmonella derby = test: Bactericidal agar-well halo assay, Salmonella derby; type: cell-based
Description: as §1, §2

E. coli 5506 DR = test: Bactericidal agar-well halo assay, E. coli 5506 DR; type: cell-based
Description: as §1, §2

Pseudomonas PS-9 = test: Bactericidal agar-well halo assay, Pseudomonas PS-9; type: cell-based; conditions: CNBr-digested fusion protein isolate 5 ug
Description: as §1, §2

Xenohabdus nematophillus = test: Bactericidal agar-well halo assay, Xenohabdus nematophillus; type: cell-based; conditions: CNBr-digested fusion protein isolate 5 ug
Description: Cyanogen bromide-digested fusion protein fractionated by HPLC was also applied to this assay. […] Cyanogen bromide-digested and undigested fusion protein samples were applied in the amounts described above in the testing of E. coli strain JF568, and the resulting halo diameters were measured.

Klebsiella pneumoniae = test: Bactericidal agar-well halo assay, Klebsiella pneumoniae; type: cell-based; conditions: CNBr-digested fusion protein isolate 5 ug
Description: as §1, §2

Serratia marcesens = test: Bactericidal agar-well halo assay, Serratia marcesens; type: cell-based; conditions: CNBr-digested fusion protein isolate 5 ug
Description: as §1, §2

[2] = CNBr-digested fusion protein isolate 5 ug

cecropin D
sensitivity of the bacterium to the cecropin (Bacillus megaterium): relatively resistant
activity against E. coli relative to cecropins A and B (E. coli): almost as much activity
activity against eight other species of bacteria [1]: significantly reduced activity

CC1(C)S[C@@H]2[C@H](NC(=O)[C@H](N)c3ccccc3)C(=O)N2[C@H]1C(=O)O [Ampicillin, ampicillin]
Halo Activity in Millimeters (Streptococcus faecalis): 7.0 Millimeters
Halo Activity in Millimeters (E. coli 5506; ampicillin 750 ng): 4.5 Millimeters
Halo Activity in Millimeters (Erwinia carotovora EC; ampicillin 750 ng): 6.5 Millimeters
Halo Activity in Millimeters (Salmonella derby; ampicillin 750 ng): 6.0 Millimeters
Halo Activity in Millimeters (E. coli 5506 DR; ampicillin 750 ng): 4.5 Millimeters

pCA3D: CNBr-digested araB-CA fusion protein isolate from E. coli carrying plasmid pCA3D; releases wild type cecropin A (KWKLFKKIEKVGQNIRDGIIKAGPAVAVVGQATQIAK; ends and bridges not checked; UniProt P01507 27-63, looked up)
Halo Activity in Millimeters (Pseudomonas PS-9): 2.0 Millimeters
Halo Activity in Millimeters (Xenohabdus nematophillus): 2.75 Millimeters
Halo Activity in Millimeters (Klebsiella pneumoniae): 4.5 Millimeters
Halo Activity in Millimeters (E. coli 5506; [2]): 5.0 Millimeters
Halo Activity in Millimeters (Erwinia carotovora EC; [2]): 4.75 Millimeters
Halo Activity in Millimeters (Serratia marcesens): 1.0 Millimeters
Halo Activity in Millimeters (Salmonella derby; [2]): 5.0 Millimeters
Halo Activity in Millimeters (E. coli 5506 DR; [2]): 6.5 Millimeters

cecropin A: natural antibacterial peptide purified from immune hemolymph of the Cecropia moth (KWKLFKKIEKVGQNIRDGIIKAGPAVAVVGQATQIAK; UniProt P01507 27-63, looked up)
sensitivity of the bacterium to the cecropin (Bacillus megaterium): highly sensitive

cecropin B: natural antibacterial peptide purified from immune hemolymph; sequence shown in b10 (KWKVFKKIEKMGRNIRNGIVKAGPAIAVLGEAKAL; UniProt P01508 27-61, looked up)
sensitivity of the bacterium to the cecropin (Bacillus megaterium): highly sensitive
